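Step 1: Grow cells in 96-well plates. Step 2: Expose to compound for 48 hours at 5 concentrations. Step 3: Interpolate endpoints linearly; if unreached, use highest concentration. GI50 is the concentration that inhibits growth by half.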 Calls of active or inactive are those of the source. Cut-off read from the data, not from the text of the source: active = GI50 up to about 1.1 µM and inactive = higher. A value given as a limit tells only on which side of the number the result lay.

Test systems include SF-295; UO-31; OVCAR-5; CCRF-CEM; TK-10; OVCAR-3; LOX IMVI; Malme-3M; SK-OV-3; SNB-75; RXF 393; SR; RPMI-8226; HOP-62; CAKI-1; K562.
What all share (assay): inhibition of tumour cell growth, NCI panel, 48 h

`Nc1ccc(C(=O)NN2C(=O)C(Cl)C2c2ccccc2Cl)cc1` (centres undefined): the GI50 was 2.95 µM (inactive) with SF-295; 17 µM (inactive) in the test with UO-31; 15.2 µM (inactive) in the test with OVCAR-5; 1.81 µM (inactive) in the test with CCRF-CEM; 16.5 µM (inactive) with TK-10; 13.8 µM (inactive) in the test with OVCAR-3. The GI50 is 1.41 µM (inactive) in the test on LOX IMVI; 17.6 µM (inactive) with Malme-3M; 16.1 µM (inactive) with SK-OV-3; 16.5 µM (inactive) in the test with SNB-75; 5.48 µM (inactive) in the test with RXF 393; 5.45 µM (inactive) with SR. In addition, the GI50 in the test on RPMI-8226 is 6.25 µM (inactive); in the test with HOP-62, 20.3 µM (inactive); in the test on CAKI-1, 13.9 µM (inactive).
As for `CC1(C)C(=NN=C(N)N)C(C)(C)C1=NN=C(N)N`, the GI50 in the test with SF-295, with UO-31, in the test on OVCAR-5, with TK-10, with OVCAR-3 and in the test on LOX IMVI was > 100 µM (inactive) each time. For the same compound, the GI50 in the test with Malme-3M, with SK-OV-3, with SNB-75, with RXF 393, in the test on SR and in the test on K562 was > 100 µM (inactive) in each case. Also, the GI50 is > 100 µM (inactive) in the test on RPMI-8226, > 10 µM (inactive) with HOP-62 and > 100 µM (inactive) with CAKI-1.
As to `C=C(CN(C)C)C(=O)c1ccc(C(=O)C(=C)CN(C)C)cc1`, the GI50 with SF-295, with UO-31, in the test on OVCAR-5, with CCRF-CEM, in the test with TK-10 and with OVCAR-3 was > 100 µM (inactive) throughout. Besides, the GI50 in the test on LOX IMVI, with Malme-3M, in the test on SK-OV-3, with SNB-75, in the test on RXF 393 and in the test with SR was > 100 µM (inactive) in each case. Further, the GI50 with K562, in the test on RPMI-8226 and with CAKI-1 was > 100 µM (inactive) each time.
Take `COC(OC)c1cccc2c1C1(O)CCC3(CC21)OCCCCO3` (centres undefined): the GI50 with SF-295, with UO-31, in the test on OVCAR-5, with CCRF-CEM, in the test with TK-10 and in the test on OVCAR-3 was > 100 µM (inactive) throughout. The GI50 with LOX IMVI, with Malme-3M, with SK-OV-3, in the test on SNB-75, in the test on RXF 393 and in the test with SR was > 100 µM (inactive) in each case. In addition, the GI50 in the test on K562, with RPMI-8226, in the test on HOP-62 and with CAKI-1 was > 100 µM (inactive) each time.
Regarding `CC1(C)O[C@@H](CCl)C[C@@H](C#N)O1`, the GI50 in the test on SF-295, with UO-31, with OVCAR-5, in the test with CCRF-CEM, with TK-10 and with OVCAR-3 was > 100 µM (inactive) in each case. Besides, the GI50 in the test with LOX IMVI, in the test on Malme-3M, in the test on SK-OV-3, in the test on SNB-75, in the test with RXF 393 and with SR was > 100 µM (inactive) in each case. For the same compound, the GI50 in the test with K562, with RPMI-8226, in the test with HOP-62 and in the test with CAKI-1 was > 100 µM (inactive) in each case.
As to `O=C1N(c2ccccc2)C(=O)C2(SC=NN2Cc2ccccc2)N1c1ccccc1` (centres undefined), the GI50 with SF-295, in the test on UO-31, in the test with CCRF-CEM, in the test with TK-10, in the test on OVCAR-3 and in the test with LOX IMVI was > 100 µM (inactive) in each case. Also, the GI50 with Malme-3M is > 100 µM (inactive); in the test with SK-OV-3 it was > 100 µM (inactive); in the test with SNB-75 it was > 100 µM (inactive); with RXF 393 it was > 100 µM (inactive); with SR it was 92.7 µM (inactive); in the test on K562 it was > 100 µM (inactive). Moreover, the GI50 in the test with HOP-62 and in the test with CAKI-1 was > 100 µM (inactive) in each case.
Take `Cc1cccc(C(C)C)c1NC(=O)C(=O)CC(=O)c1c(C)[n+]([O-])c2ccccc2[n+]1[O-]`: the GI50 in the test on SF-295 is 49.1 µM (inactive); with UO-31, > 100 µM (inactive); with OVCAR-5 it was 45.9 µM (inactive); in the test on CCRF-CEM it was 32.2 µM (inactive); with TK-10 it was > 100 µM (inactive); with OVCAR-3, 3.44 µM (inactive). In addition, the GI50 in the test with LOX IMVI is 23 µM (inactive); in the test on Malme-3M, 18.7 µM (inactive); in the test with SK-OV-3, > 100 µM (inactive); in the test on SNB-75 it was 28.5 µM (inactive); in the test with RXF 393, 44.2 µM (inactive); in the test with SR, 28.2 µM (inactive). In addition, the GI50 in the test with K562 is > 100 µM (inactive); in the test with RPMI-8226, 22.2 µM (inactive); with HOP-62, > 100 µM (inactive); with CAKI-1 it was 25.6 µM (inactive).
As for `COC(=O)C1=C(O)c2cc(OC)c(OC)cc2C(c2ccc(OC)c(OC)c2)C1` (centres undefined), the GI50 in the test with SF-295 was 46.9 µM (inactive); in the test with UO-31 it was > 100 µM (inactive); with OVCAR-5 it was > 100 µM (inactive); in the test with CCRF-CEM, > 100 µM (inactive); in the test with TK-10 it was > 100 µM (inactive); in the test with OVCAR-3, > 100 µM (inactive). Further, the GI50 in the test on LOX IMVI was 69.5 µM (inactive); in the test on Malme-3M, > 100 µM (inactive); with SK-OV-3, > 100 µM (inactive); in the test on SNB-75, > 100 µM (inactive); in the test with RXF 393, > 100 µM (inactive); in the test on SR it was 38.5 µM (inactive). In addition, the GI50 with K562, with RPMI-8226, with HOP-62 and in the test with CAKI-1 was > 100 µM (inactive) each time.
In the case of `CC#C[I+]c1ccccc1`, the GI50 with SF-295 was 69.3 µM (inactive); in the test with UO-31, 30.3 µM (inactive); in the test with OVCAR-5, 32.7 µM (inactive); with CCRF-CEM, 4.17 µM (inactive); with TK-10, 16.4 µM (inactive); with OVCAR-3, 17.5 µM (inactive). For the same compound, the GI50 was 13.8 µM (inactive) with LOX IMVI; 18.9 µM (inactive) in the test with Malme-3M; 30.3 µM (inactive) in the test with SK-OV-3; 50 µM (inactive) in the test on SNB-75; 19.1 µM (inactive) in the test with RXF 393; 15.1 µM (inactive) in the test on SR. In addition, the GI50 was 15.8 µM (inactive) in the test with K562, 35.3 µM (inactive) with HOP-62 and 14.1 µM (inactive) in the test with CAKI-1.
As to `BrC1=CC=C2NC=CC3=CC=NC1C32` (centres undefined), the GI50 with SF-295 was 8.36 µM (inactive); in the test on UO-31 it was 14.5 µM (inactive); in the test with OVCAR-5 it was 19.1 µM (inactive); in the test on CCRF-CEM, 6.22 µM (inactive); in the test on TK-10 it was 34.1 µM (inactive); with OVCAR-3 it was 22 µM (inactive). The GI50 with LOX IMVI was 9.55 µM (inactive); with Malme-3M, 27.7 µM (inactive); in the test on SK-OV-3, 25.1 µM (inactive); with SNB-75, 18.3 µM (inactive); in the test with RXF 393 it was 16 µM (inactive); in the test on SR, 4.57 µM (inactive). In addition, the GI50 in the test with K562 was 12.2 µM (inactive); in the test with RPMI-8226, 11.4 µM (inactive); in the test with HOP-62, 25.5 µM (inactive).
`CC1=NN(C(=O)CC(=O)Nc2ccccc2)C(=O)C1/N=N/c1ccc(S(N)(=O)=O)cc1` (centres undefined): the GI50 with SF-295 is > 100 µM (inactive); with UO-31, 57.8 µM (inactive); in the test with OVCAR-5 it was > 100 µM (inactive); in the test with CCRF-CEM, 46 µM (inactive); in the test with TK-10, > 100 µM (inactive); with OVCAR-3 it was 66.2 µM (inactive). For the same compound, the GI50 was 75.5 µM (inactive) in the test with LOX IMVI; > 100 µM (inactive) with Malme-3M; > 100 µM (inactive) with SK-OV-3; 60.8 µM (inactive) with SNB-75; 70.8 µM (inactive) with RXF 393; 56.9 µM (inactive) in the test on SR. For the same compound, the GI50 is 35.2 µM (inactive) in the test on K562, 84.5 µM (inactive) in the test on RPMI-8226, 88.5 µM (inactive) in the test on HOP-62 and 50.8 µM (inactive) in the test with CAKI-1.
Turning to `Cc1ccc(-c2nnc(-c3nn(-c4ccccc4)c4nc5ccccc5nc34)o2)cc1`, the GI50 with SF-295 was 15.6 µM (inactive); with UO-31 it was 20.4 µM (inactive); with OVCAR-5 it was > 100 µM (inactive); in the test with CCRF-CEM, 3.59 µM (inactive); in the test on TK-10 it was 14 µM (inactive); in the test with OVCAR-3, 14.1 µM (inactive). For the same compound, the GI50 was 15.7 µM (inactive) with LOX IMVI; 10.8 µM (inactive) in the test with SK-OV-3; 4.1 µM (inactive) in the test with SNB-75; 6.05 µM (inactive) with RXF 393; 9.73 µM (inactive) with SR; 11.4 µM (inactive) with K562. Besides, the GI50 in the test on RPMI-8226 was 8.38 µM (inactive); in the test on HOP-62 it was 13.5 µM (inactive); with CAKI-1, 11.7 µM (inactive).
On to `CC#C[P+](c1ccccc1)(c1ccccc1)c1ccccc1`, for which the GI50 is 2.75 µM (inactive) with SF-295; 7.41 µM (inactive) with UO-31; 8.55 µM (inactive) in the test on OVCAR-5; 0.693 µM (active) in the test on CCRF-CEM; 4.09 µM (inactive) in the test on TK-10; 3.09 µM (inactive) in the test on OVCAR-3. Moreover, the GI50 in the test with LOX IMVI was 2 µM (inactive); in the test on Malme-3M it was 10.4 µM (inactive); with SK-OV-3 it was 14.6 µM (inactive); in the test with SNB-75, 2.43 µM (inactive); with RXF 393, 5.25 µM (inactive); in the test on SR it was 2.88 µM (inactive). For the same compound, the GI50 is 1.95 µM (inactive) in the test with K562, 2.83 µM (inactive) in the test on HOP-62 and 3.24 µM (inactive) in the test on CAKI-1.
